Assay results taken from patent US8361968B2 (Takeda Pharmaceutical Company Limited, priority 2002, dated 2013).

Assays:
hOT7T175 = hOT7T175 (Homo sapiens, UniProt Q969F8, L364H); assay: Intracellular Ca ion level-increasing activity using FLIPR in hOT7T175/CHO; assay type: cell-based; parameters: expressed in transfected cells; host or cells: CHO/dhfr- cells, obtained from ATCC; conditions: relative, Metastin (1-54) = 1
[1] = Stability of compound in blood (mouse serum, half life); conditions: female, Balb/c
Experimental: Blood was drawn from Balb/c mice (female) of 8 weeks old, settled at 37° C. for 30 minutes and centrifuged at 13000 rpm for 10 minutes to give the serum as the supernatant. The serum thus obtained was frozen-stored at −80° C.
The stability test was performed by addition of 5 nmol of Compound (5 μL of aqueous solution) to 45 μL of serum and then settlement of the mixture at 37° C. The settlement was made at 3 points of time, including 2, 10 and 30 minutes. The sample after the settlement was boiled for 3 minutes and cooled on an ice bath. After 200 μL of acetonitrile/water (3/1) was added to the sample, the mixture was ultrasonicated for 5 minutes and then centrifuged at 5000 rpm for 1 minute. After 150 μL of the supernatant was diluted with 250 μL of distilled water, insoluble matters were removed by filtration through a filter having a pore size of 0.45 μm and 200 μL of the filtrate was applied on HPLC (220 nm) to determine the peak area of Compound. A ratio of the peak area to the area when Compound was treated for 0 minute under the same conditions was calculated as a mean value in 4 respective runs to determine the residual ratio. Next, by taking the calculated residual ratio on the ordinate and the time on the abscissa, a graph was prepared and approximated by an exponential function.
The preparative HPLC used was the LC-VP series manufactured by Shimadzu Corporation and Wakosil-II 5C18 HG (4.6 mm×100 mm) manufactured by Wako Pure Chemical Industries, Ltd. was used as the column. Eluant A (0.1% TFA-containing water) and eluant B (0.1% TFA-containing acetonitrile) were used as eluants. Analysis was performed by linear density gradient elution (25 minutes) at a flow rate of 1.0 ml/min. using eluants A/B: 100/0-0/50.

Chain of hOT7T175 (Q969F8 whole entry L364H): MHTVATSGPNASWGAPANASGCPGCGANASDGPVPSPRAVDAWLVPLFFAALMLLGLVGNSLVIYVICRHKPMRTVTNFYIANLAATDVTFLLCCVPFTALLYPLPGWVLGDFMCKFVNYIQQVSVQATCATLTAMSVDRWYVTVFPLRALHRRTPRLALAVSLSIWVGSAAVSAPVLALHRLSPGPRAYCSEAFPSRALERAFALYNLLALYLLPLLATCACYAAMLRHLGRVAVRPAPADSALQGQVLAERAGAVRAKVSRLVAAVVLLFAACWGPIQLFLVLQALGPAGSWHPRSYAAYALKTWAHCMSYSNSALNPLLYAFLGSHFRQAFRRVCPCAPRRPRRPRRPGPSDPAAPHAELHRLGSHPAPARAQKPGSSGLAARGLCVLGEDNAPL

Row | SMILES | Specific Activity (intracellular Ca ion level-increasing activity) (hOT7T175) | half-life at 100 µM [1] [min]
1 | CC(C)C[C@H](NC(=O)CNC(=O)[C@H](Cc1ccccc1)NC(=O)[C@H](CO)NC(=O)[C@H](CC(N)=O)NC(=O)[C@H](Cc1c[nH]c2ccccc12)NC(=O)[C@H](CC(N)=O)NC(=O)[C@@H](N)Cc1ccc(O)cc1)C(=O)N[C@@H](CCCNC(=N)N)C(=O)N[C@@H](Cc1ccccc1)C(N)=O [Compound No. 3, reference compound] | 10 | 0.6
2 | CNC(=N)NCCC[C@H](NC(=O)[C@H](CC(C)C)NC(=O)CC(=O)N[C@H](Cc1ccccc1)NC(=O)[C@H](CO)NC(=O)[C@H](CC(N)=O)NC(=O)[C@H](Cc1c[nH]c2ccccc12)NC(=O)[C@H](CC(N)=O)NC(=O)[C@H](N)Cc1ccc(O)cc1)C(=O)N[C@@H](Cc1ccccc1)C(N)=O [Compound No. 319, D-Tyr-Asn-Trp-Asn-Ser-PheΨ(NHCO)Gly-Leu-Arg(Me)-Phe-NH2] | 3 | 33
